Assay results as given in patent US20260049077A1, “Neurotrophic Receptor Tyrosine Kinase (NTRK) Inhibitors and Methods Using Same” (Baylor College of Medicine, priority 2022, published 2026).
Values joined by “and” are separate entries in the source; they are usually repeats but may differ in a detail not shown here. Equal values may be shown once. “Also recorded” adds a separate entry of the source. Read-outs that look alike come from different tables or passages of the source.

How the values were obtained:
[1] = target: T1, NTRK2 (Homo sapiens (Human), UniProt Q16620); experiment: NTRK2 apparent inhibition constant (Ki app)
T1 sequence (Q16620 32-822): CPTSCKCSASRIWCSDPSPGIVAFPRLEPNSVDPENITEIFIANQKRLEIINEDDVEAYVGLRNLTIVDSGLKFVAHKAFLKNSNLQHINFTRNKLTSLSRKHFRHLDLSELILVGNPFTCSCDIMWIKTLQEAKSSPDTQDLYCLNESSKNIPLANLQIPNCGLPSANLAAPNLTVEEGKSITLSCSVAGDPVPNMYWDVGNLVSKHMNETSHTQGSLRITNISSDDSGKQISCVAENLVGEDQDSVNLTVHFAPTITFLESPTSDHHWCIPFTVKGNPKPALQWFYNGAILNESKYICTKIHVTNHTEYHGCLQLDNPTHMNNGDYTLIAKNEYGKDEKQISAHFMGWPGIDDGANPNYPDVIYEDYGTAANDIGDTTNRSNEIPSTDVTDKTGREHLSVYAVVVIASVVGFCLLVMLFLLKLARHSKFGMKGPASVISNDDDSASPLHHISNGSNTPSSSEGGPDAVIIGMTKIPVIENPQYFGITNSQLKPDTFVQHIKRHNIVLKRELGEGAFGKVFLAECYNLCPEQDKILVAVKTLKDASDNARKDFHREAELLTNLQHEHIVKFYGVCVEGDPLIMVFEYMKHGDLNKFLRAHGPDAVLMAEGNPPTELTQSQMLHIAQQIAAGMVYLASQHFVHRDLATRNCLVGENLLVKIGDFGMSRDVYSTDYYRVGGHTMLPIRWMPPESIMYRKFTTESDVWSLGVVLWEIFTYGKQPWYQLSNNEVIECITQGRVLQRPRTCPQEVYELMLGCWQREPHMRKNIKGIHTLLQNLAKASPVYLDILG

[2] = target: T1, NTRK2; experiment: NTRK2 inhibition (IC50); assay type: biochemical
[3] = target: NTRK1 (Homo sapiens (Human), UniProt P04629); experiment: NTRK1 inhibition (IC50); conditions: read-out: NTRK1 IC50
Chain of NTRK1 (P04629 33-796): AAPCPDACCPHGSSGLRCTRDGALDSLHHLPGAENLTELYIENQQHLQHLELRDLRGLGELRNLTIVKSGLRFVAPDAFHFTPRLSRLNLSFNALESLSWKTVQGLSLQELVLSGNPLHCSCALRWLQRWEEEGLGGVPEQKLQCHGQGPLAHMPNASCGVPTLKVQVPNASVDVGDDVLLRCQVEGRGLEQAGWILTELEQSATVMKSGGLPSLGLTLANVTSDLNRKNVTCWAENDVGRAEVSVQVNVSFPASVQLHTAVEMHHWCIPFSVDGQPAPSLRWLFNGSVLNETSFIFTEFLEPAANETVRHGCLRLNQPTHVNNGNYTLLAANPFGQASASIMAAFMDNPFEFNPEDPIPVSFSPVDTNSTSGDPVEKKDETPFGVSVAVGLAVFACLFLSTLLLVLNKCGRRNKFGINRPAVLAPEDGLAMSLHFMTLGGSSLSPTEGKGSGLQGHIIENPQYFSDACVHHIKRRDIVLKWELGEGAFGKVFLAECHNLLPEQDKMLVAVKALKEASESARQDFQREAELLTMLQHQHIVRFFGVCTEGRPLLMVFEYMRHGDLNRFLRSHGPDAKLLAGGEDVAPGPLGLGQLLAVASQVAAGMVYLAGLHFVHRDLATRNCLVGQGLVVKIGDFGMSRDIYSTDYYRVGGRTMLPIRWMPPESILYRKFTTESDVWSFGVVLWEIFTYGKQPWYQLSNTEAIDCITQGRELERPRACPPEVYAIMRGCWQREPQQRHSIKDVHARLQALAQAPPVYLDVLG

[4] = target: T1, NTRK2; experiment: Promega NTRK2 NanoBRET live-cell target engagement; assay type: cell-based; conditions: live cells
From the text: FIGS. 6A-6B show the live-cell engagement (FIG. 6A) concept and an NTRK2 example (FIG. 6B). FIG. 6A: Depiction of Promega's NanoBRET target engagement system as per their website. The system involves cell-based competitive displacement of a fluorescent NanoBRET tracer bound reversibly to a NanoLuc fusion protein. Test compounds displace the tracer dependent on their affinity for the target and […] the NanoBRET signal. FIG. 6B: Example of the use of Promega's NTRK2 NanoBRET cell-based system. Each NTRK2 compound (Cpd) was assayed in kinase assays and in cells. Multiple NTRK2 compounds enter the cell and are potent nanomolar inhibitors in these assays (% normalized to no Cpd).
As described elsewhere herein, hit compounds, including but not limited to CDD-2262, and its smaller analog, CDD-2330, were synthesized off-DNA and evaluated for NTRK2 activity.

[5] = Metabolic stability in human liver microsomes (HLM)
[6] = Metabolic stability in mouse liver microsomes (MLM)
[7] = Metabolic stability in mouse and human liver microsomes; assay type: in vitro ADME; conditions: mouse and human liver microsomes in vitro
[8] = test system: human kinome; experiment: KINOMEscan kinome-wide binding profiling; conditions: 1 μM
From the text: (§1) FIG. 7B: Using the ThermoFisher Z'-LYTE™ screening assay, kinase specificity for the NTRK subfamily was observed.
(§2) To broadly assess the kinome-wide selectivity of CDD-2330, a KINOMEscan profiling platform was employed (FIG. 7A).

[9] = Plasma ALT and AST in mice after a high dose (50 mg/kg); assay type: in vivo, mouse
[10] = target: NTRK3 (Homo sapiens (Human), UniProt Q16288); experiment: NTRK3 inhibition (IC50); conditions: read-out: NTRK3 IC50
Chain of NTRK3 (Q16288 32-839): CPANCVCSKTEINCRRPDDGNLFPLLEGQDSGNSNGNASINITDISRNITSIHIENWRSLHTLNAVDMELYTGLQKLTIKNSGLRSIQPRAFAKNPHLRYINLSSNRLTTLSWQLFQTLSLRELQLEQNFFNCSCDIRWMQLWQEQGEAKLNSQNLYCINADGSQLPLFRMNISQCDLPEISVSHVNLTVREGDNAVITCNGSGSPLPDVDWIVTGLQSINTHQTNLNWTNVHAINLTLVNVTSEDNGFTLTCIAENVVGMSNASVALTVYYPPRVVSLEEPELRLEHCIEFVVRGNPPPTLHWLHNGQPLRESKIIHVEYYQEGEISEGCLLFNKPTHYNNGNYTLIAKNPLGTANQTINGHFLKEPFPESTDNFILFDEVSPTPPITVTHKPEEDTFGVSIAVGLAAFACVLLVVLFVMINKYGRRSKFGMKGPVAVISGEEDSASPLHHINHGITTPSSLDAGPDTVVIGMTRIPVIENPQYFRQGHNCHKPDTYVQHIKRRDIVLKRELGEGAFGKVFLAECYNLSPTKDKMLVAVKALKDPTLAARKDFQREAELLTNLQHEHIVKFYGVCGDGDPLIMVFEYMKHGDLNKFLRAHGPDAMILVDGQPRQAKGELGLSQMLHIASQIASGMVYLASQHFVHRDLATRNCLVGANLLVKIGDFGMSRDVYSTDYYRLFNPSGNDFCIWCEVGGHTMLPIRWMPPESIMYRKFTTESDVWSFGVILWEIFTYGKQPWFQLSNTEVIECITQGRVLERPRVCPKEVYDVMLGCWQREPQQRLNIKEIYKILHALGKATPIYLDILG

[11] = target: NTRKs; experiment: ThermoFisher Z'-LYTE kinase assay, NTRKs; assay type: biochemical; conditions: Z'-LYTE dose response; range over NTRKs
From the text: as §1, §2

[12] = target: MAP3K19 (Homo sapiens (Human), UniProt Q56UN5); experiment: ThermoFisher Z'-LYTE kinase assay, MAP3K19; assay type: biochemical
Chain of MAP3K19 (Q56UN5 whole entry): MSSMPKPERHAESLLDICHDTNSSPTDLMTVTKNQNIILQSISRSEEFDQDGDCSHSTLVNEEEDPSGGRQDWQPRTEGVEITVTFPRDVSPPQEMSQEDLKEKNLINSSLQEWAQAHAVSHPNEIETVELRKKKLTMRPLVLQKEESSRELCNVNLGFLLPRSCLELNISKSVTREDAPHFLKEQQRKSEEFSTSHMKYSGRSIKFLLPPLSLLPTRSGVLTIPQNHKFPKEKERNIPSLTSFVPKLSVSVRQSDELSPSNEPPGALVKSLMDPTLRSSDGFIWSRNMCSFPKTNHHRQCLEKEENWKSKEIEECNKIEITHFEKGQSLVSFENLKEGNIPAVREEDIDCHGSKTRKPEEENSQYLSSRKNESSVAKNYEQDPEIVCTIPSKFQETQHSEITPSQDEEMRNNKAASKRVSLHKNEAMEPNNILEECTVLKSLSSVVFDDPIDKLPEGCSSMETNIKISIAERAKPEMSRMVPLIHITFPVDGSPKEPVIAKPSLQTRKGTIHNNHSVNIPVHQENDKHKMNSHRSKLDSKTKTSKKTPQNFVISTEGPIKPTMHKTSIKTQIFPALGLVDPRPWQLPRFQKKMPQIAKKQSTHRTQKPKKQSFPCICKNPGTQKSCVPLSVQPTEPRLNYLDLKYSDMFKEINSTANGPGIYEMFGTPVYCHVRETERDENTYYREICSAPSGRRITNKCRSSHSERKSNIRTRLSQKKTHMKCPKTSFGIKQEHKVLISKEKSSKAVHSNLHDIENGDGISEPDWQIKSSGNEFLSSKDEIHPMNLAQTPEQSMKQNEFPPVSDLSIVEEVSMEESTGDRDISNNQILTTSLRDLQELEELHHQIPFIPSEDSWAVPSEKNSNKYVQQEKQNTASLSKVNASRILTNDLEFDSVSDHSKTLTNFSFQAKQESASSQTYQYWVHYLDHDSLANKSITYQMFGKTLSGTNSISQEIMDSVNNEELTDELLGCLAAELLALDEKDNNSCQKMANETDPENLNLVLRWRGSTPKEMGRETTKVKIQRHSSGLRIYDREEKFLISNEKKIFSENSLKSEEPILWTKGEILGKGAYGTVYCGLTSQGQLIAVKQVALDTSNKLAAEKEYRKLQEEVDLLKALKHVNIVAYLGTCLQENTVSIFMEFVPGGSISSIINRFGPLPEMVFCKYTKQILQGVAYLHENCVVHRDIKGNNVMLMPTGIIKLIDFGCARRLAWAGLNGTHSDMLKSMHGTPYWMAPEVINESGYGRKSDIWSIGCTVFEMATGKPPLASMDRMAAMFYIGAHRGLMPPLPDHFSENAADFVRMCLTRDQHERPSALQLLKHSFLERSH

[13] = Pharmacokinetics of orally administered CDD-2330 in mice; assay type: in vivo, mouse; conditions: oral 50 mg/kg
Experimental: CDD-2330 was dissolved in 10% DMSO+0.5% methyl cellulose at 5 mg/mL. CDD-2330 was orally delivered at 50 mg/kg to mice (n=4). Blood samples were collected at 0, 0.25, 0.5, 1, 2, 4, 6, 8, and 24 h. Samples were analyzed by LC-MS, and the concentration of CDD-2330 was quantified with a standard curve (range: 0-10 μM). CDD-3031 was administered by oral gavage at a dose of 50 mg/kg. Blood samples were collected at […], 0.167, 0.25, 0.5, 1, 2, 4, 6, 8, and 24 h.

[14] = Mouse brain and testis distribution; assay type: in vivo; conditions: ip, mice, intraperitoneal
Experimental: FIGS. 9A-9B show mouse brain (FIG. 9A) and testis (FIG. 9B) distribution of CDD-2330. Mice (n=3 per timepoint) were treated intraperitoneally with CDD-2330 and brain, testis, and blood samples were collected. Samples were processed and analyzed by LC-MS.

[15] = Brain uptake in mice 24 hours post-administration; assay type: in vivo, mouse; conditions: mouse, brain, 24 h, read-out: Brain Concentration at 24 h (ng/mg)
[16] = test system: endometriotic lesions; experiment: Endometriosis mouse model, lesion efficacy; assay type: in vivo; conditions: for number, volume and mass of lesions / endometriotic lesion growth: 10 mg/kg; for number, volume and mass of lesions: compared to vehicle control; for endometriotic lesion growth: excised lesions
Experimental: FIGS. 17A-17F depict the robust efficacy of the inhibitory compounds of the present disclosure as NTRK2 inhibitors for inhibition of endometriotic lesion growth in mice utilizing CDD-3132 as an example. FIG. 17A provides a schematic overview of the experiment performed. FIGS. 17B-17C provide photographs showing excised lesions with administration of a control (FIG. 17B) or CDD-3132 (10 mg/kg/day) (FIG. 17C).
(§3) In one aspect, the present disclosure provides exemplary data relating to the administration of NTRK2 inhibitors in a mouse model of endometriosis (FIG. 14). In certain embodiments, the recipient mouse is administered the NTRK2 inhibitor and/or controls on day 14 after intraperitoneal injection of endometrium of the donor mouse. In certain embodiments, the recipient mouse is sacrificed and quantitatively assessed on day 28.

[17] = Endometriosis mouse model, liver and kidney toxicity (organ weight, ALT, AST); assay type: in vivo; design: ALT (Mean ± SD) / AST (Mean ± SD): unit not given here; conditions: for ALT (Mean ± SD) / AST (Mean ± SD): i.p. dose of 10 mg/kg/day for 14 days
Experimental: as §3

[18] = in vivo; cited from earlier work
[19] = test system: FLT3-ITD; conditions: cited from earlier work
[20] = at 4 h; cited from earlier work
[21] = plasma, 48 h after oral 50 mg/kg CDD-2330, individual mice
[22] = group average, CDD-2737 at 10 mg/kg/day for 14 days, n-butyrate 100 mM
[23] = individual mice, CDD-2737 at 10 mg/kg/day for 14 days, n-butyrate 100 mM

With `CCOc1ccc(CC(=O)N(Cc2ccn3nccc3c2)[C@H](C)c2ccccc2)cc1` [CDD-2222, (R)-2-(4-ethoxyphenyl)-N-(1-phenylethyl)-N-(pyrazolo[1,5-a]pyridin-5-ylmethyl)acetamide] the Ki [1] was 34 ± 10 nM and the IC50 [2] was 43 nM.

In the case of `CC(C)N(Cc1ccn2nccc2c1)C(=O)Nc1ccc(OC(F)(F)F)cc1` [CDD-2299, 1-isopropyl-1-(pyrazolo[1,5-a]pyridin-5-ylmethyl)-3-(4-(trifluoromethoxy)phenyl)urea], the IC50 [3] is reported as 31 nM, the “cell penetration and effect in NanoBRET assays” value (“cell penetration and effect” below) [4] is reported as “able to penetrate cell membranes to induce an effect” and the half-life [5] is reported as 0.718 h. It also gave a half-life [6] of 0.337 h and an IC50 [2] of 3.7 nM.

With `CC(C)N(Cc1ccn2ncc(C(=O)O)c2c1)C(=O)Nc1ccc(OC(F)(F)F)cc1` [CDD-2330, 5-((1-isopropyl-3-(4-(trifluoromethoxy)phenyl)ureido)methyl)pyrazolo[1,5-a]pyridine-3-carboxylic acid] the IC50 [3] was 3.8 nM, the “cell penetration and effect” value [4] was “able to penetrate cell membranes to induce an effect” and the half-life [7] was over 25 h. For the same molecule, the half-life [5] was 25.6 h, the “kinome-wide selectivity (KINOMEscan)” value [8] was “highly specific for NTRK1, NTRK2, and NTRK3; also recorded: high specificity for NTRKs, with MAP3K19 as the only possible off-target” and the half-life [6] was 27.2 h. The “potential liver and other tissue toxicity” value ([9]; high dose, 50 mg/kg) was “minimal effects”, the ALT [9, 21] was 13.97 U/L and 26.17 U/L and 13.44 U/L and 18.74 U/L and the AST [9, 21] was 19.45 U/L and 18.92 U/L and 26.17 U/L and 13.26 U/L. The IC50 [10] was 1.2 nM, the IC50 [11] was 1.2 to 3.8 nM and the “selectivity over MAP3K19” value ([12]; NTRKs vs MAP3K19, Z'-LYTE) was over 100 fold. For the same molecule, the IC50 ([12]; Z'-LYTE dose response) was 401 nM, the IC50 [2] was 3.5 nM and the “blood level after oral administration” value [13] was “rapid disappearance in the blood”. The Kp at 4 h ([14]; brain, read-out: Brain:Plasma) was 0.31 and the Kp at 4 h ([14]; testis, read-out: Testis:Plasma) was 0.31.

In the case of `CC(C)N(Cc1ccn2ncc(C(N)=O)c2c1)C(=O)Nc1ccc(OC(F)(F)F)cc1` [CDD-2737, 5-((1-isopropyl-3-(4-(trifluoromethoxy)phenyl)ureido)methyl)pyrazolo[1,5-a]pyridine-3-carboxamide], the IC50 [3] is reported as 6.1 nM, the “cell penetration and effect” value [4] is reported as “able to penetrate cell membranes to induce an effect” and the half-life [5] is reported as 3.17 h. For the same molecule, the half-life [6] was 2.6 h, the concentration at 24 h [15] was 40 ng/g and the IC50 [10] was 3.1 nM. The IC50 [2] was 2.3 nM, the “number and size of lesions” value ([16]; endometriosis mouse model, compared to controls) was “decreases the number of lesions and the size of lesions; also recorded: decreased number of lesions and lesions of diminished size” and the “gross and serum effects on the liver and kidney” value ([17]; endometriosis mouse model) was “no gross or serum effects; also recorded: no gross effects”. The “ALT (U/L), Average” value [17, 22] was 15.2 U/L, the “AST (U/L), Average” value [17, 22] was 31.3 U/L and the “ALT (U/L)” value [17, 23] was 13.79 U/L and 13.61 U/L and 10.25 U/L and 23.16 U/L. The “AST (U/L)” value [17, 23] was 28.11 U/L and 47.21 U/L and 27.58 U/L and 22.28 U/L.

For `CC(C)c1ccc(OCC(=O)N(Cc2ccn3ncc(C(N)=O)c3c2)C(C)C)cc1` [CDD-3032, 5-((N-isopropyl-2-(4-isopropylphenoxy)acetamido)methyl)pyrazolo[1,5-a]pyridine-3-carboxamide], the IC50 [3] was 34 nM, the “cell penetration and effect” value [4] was “able to penetrate cell membranes to induce an effect” and the half-life [5] was 0.472 h. For the same molecule, the half-life [6] was 0.105 h, the IC50 [10] was 13.7 nM and the IC50 [2] was 6.1 nM.

Work on `CC(C)N(Cc1ccn2ncc(C(N)=O)c2c1)C(=S)Nc1ccc(OC(F)(F)F)cc1` [CDD-3119, 5-((1-isopropyl-3-(4-(trifluoromethoxy)phenyl)thioureido)methyl)pyrazolo[1,5-a]pyridine-3-carboxamide] yielded an IC50 [3] of 3.8 nM, a half-life [5] of 1.6 h and a half-life [6] of 4.83 h. For the same molecule, the concentration at 24 h [15] was 140 ng/g, the IC50 [10] was 6.6 nM and the IC50 [2] was 3.6 nM. The “number, volume and mass of lesions” value [16] was “reduction of lesions, volume of lesions, and mass of lesions”, the endometriotic lesion growth [16] was “inhibiting endometriotic lesion growth” and the “effect on liver and/or kidney weight and/or serum elevation of ALT and AST” value ([17]; 10 mg/kg, mice with endometriotic lesions) was “little to no effect”. The “ALT (Mean ± SD)” value [17] was 21.3 ± 4.9, the “AST (Mean ± SD)” value [17] was 53.2 ± 18.5 and the “impact on liver and kidney weights” value ([17]; mice treated for 14 days) was “no significant impact”.

In the case of `CN1CCN(c2ccc(C(=O)Nc3n[nH]c4ccc(Cc5cc(F)cc(F)c5)cc34)c(NC3CCOCC3)c2)CC1` [Entrectinib, N-(5-(3,5-difluorobenzyl)-1H-indazol-3-yl)-4-(4-methylpiperazin-1-yl)-2-((tetrahydro-2H-pyran-4-yl)amino)benzamide], the blood-brain barrier crossing [18] is listed as “cross the blood-brain barrier”.

For `CC(C)(CO)n1cc(C(=O)c2cncc(NC(=O)Cc3ccc(Cl)cn3)c2)c2cnc(N)nc21` [PF-06273340, N-[5-[[2-Amino-7-(2-hydroxy-1,1-dimethylethyl)-7H-pyrrolo[2,3-d]pyrimidin-5-yl]carbonyl]-3-pyridinyl]-5-chloro-2-pyridineacetamide, reference compound], the half-life [5] was 8.37 h, the half-life [6] was 3.37 h and the concentration at 24 h [15] was 80 ng/g. For the same molecule, the “number, volume and mass of lesions” value [16] was “reduction of lesions, volume of lesions, and mass of lesions”, the endometriotic lesion growth [16] was “inhibiting endometriotic lesion growth” and the “ALT (Mean ± SD)” value [17] was 15.1 ± 1.6. The “AST (Mean ± SD)” value [17] was 25.3 ± 7.1.

For `FC(F)(F)c1ccc(CNc2ccc(Cc3c[nH]c4ncc(Cl)cc34)cn2)cn1` [Pexidartinib], the IC50 [19] is listed as 9 nM.

For `CNCC[C@@H](Oc1ccccc1C)c1ccccc1` [atomoxetine], the “Brain:Plasma (comparator antidepressant drug)” value [20] is listed as 20.

In the case of `O=C(Nc1cnn2ccc(N3CCC[C@@H]3c3cc(F)ccc3F)nc12)N1CC[C@H](O)C1` [larotrectinib], the blood-brain barrier crossing [18] is given as “cross the blood-brain barrier”.
